Here are results for 9 molecules from patent publication US9353081B2, “Bicyclic dihydroquinoline-2-one derivatives” (Hoffmann-La Roche Inc., priority 2011, dated 2016).

For one assay, the target named is human CYP11B1 (Homo sapiens (Human), UniProt P15538). The experiment in a line: G-402 cellular enzyme assay, human CYP11B1 (cortisol release, HTRF). The settings on record: G-402 cells expressing human CYP11B1; 1 μM Deoxycortisol. Format: cell-based. (In general: TR-FRET usually uses a lanthanide donor and a delayed reading to cut background.)
human CYP11B1, sequence (P15538 25-503): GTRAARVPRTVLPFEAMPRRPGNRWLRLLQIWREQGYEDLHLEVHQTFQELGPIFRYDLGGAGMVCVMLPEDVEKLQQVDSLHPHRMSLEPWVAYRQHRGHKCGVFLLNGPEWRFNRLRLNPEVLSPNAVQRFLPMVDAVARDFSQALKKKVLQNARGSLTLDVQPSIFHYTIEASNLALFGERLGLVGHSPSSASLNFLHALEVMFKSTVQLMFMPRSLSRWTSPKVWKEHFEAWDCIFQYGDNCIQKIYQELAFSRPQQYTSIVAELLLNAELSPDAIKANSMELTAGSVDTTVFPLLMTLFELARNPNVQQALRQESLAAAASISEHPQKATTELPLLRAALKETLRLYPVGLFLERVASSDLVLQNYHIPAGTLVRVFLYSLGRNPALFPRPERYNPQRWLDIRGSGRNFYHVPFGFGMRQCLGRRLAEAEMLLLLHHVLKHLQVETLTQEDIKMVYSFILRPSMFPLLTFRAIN
A further assay has as its target human CYP11B2 (Homo sapiens (Human), UniProt P19099). The assay is described as follows: G-402 cellular enzyme assay, human CYP11B2 (aldosterone release, HTRF). The settings on record: G-402 cells expressing human CYP11B2; 1 μM Deoxycorticosterone. Format: cell-based.
Assay [1] relates to rat model of chronic kidney disease. The settings on record: cited from earlier work; for plasma aldosterone: FAD286: 4 weeks of treatment, spironolactone: 4 and 8 weeks of treatment; for angiotensin II and salt-stimulated PAI-1 mRNA expression in the aorta and the heart / cardiac and aortic medial hypertrophy / renal effects of angiotensin II and high salt (albuminuria, azotemia, renovascular hypertrophy, glomerular injury, PAI-1 and osteopontin mRNA, tubulointerstitial fibrosis): rat CKD model.

The subject of assay [2] is rats with experimental heart failure. The settings on record: cited from earlier work.
Assay [3] relates to patients with primary aldosteronism. The settings on record: cited from earlier work.

One may read the EC50 as the midpoint of the concentration-response curve. Low values mean a more potent agent, high ones a less potent agent.

human CYP11B2, sequence (P19099 25-503): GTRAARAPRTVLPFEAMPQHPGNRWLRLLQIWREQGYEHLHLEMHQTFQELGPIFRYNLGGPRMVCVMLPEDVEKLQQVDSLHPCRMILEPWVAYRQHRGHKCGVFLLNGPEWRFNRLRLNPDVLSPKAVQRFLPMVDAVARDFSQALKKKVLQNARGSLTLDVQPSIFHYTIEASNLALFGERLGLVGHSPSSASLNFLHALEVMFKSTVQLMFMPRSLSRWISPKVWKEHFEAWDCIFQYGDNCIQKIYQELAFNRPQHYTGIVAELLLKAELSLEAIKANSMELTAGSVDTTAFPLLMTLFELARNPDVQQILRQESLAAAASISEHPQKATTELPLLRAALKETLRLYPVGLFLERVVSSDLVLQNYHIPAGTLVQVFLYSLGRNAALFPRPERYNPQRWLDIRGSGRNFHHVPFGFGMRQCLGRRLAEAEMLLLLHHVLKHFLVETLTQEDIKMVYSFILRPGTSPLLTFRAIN

Turning to `CN1C(=O)CCc2cc(-c3cncc4c3CCC[C@H]4NC(=O)c3ncccc3Cl)ccc21` [Example 62, 3-Chloro-pyridine-2-carboxylic acid [(R)-4-(1-methyl-2-oxo-1,2,3,4-tetrahydro-quinolin-6-yl)-5,6,7,8-tetrahydro-isoquinolin-8-yl]-amide], the EC50 came out at 558 nM at human CYP11B1 and 5.3 nM on human CYP11B2.

For the molecule `CC(=O)N[C@@H]1CCCc2c(-c3ccc4c(c3)CCC(=O)N4C)cncc21` [Example 63, N—[(R)-4-(1-Methyl-2-oxo-1,2,3,4-tetrahydro-quinolin-6-yl)-5,6,7,8-tetrahydro-isoquinolin-8-yl]-acetamide], the EC50 at human CYP11B1 was determined as 1190 nM; at human CYP11B2, 4.8 nM.

Take `CN1C(=O)CCc2cc(-c3cncc4c3CCC[C@H]4NC(=O)C3CC3)ccc21` [Example 64, Cyclopropanecarboxylic acid [(R)-4-(1-methyl-2-oxo-1,2,3,4-tetrahydro-quinolin-6-yl)-5,6,7,8-tetrahydro-isoquinolin-8-yl]-amide]: the EC50 on human CYP11B1 is 2360 nM; at human CYP11B2, 46.2 nM.

On to `CN1C(=O)CCc2cc(-c3cncc4c3CCC[C@H]4NS(C)(=O)=O)ccc21` [Example 65, N—[(R)-4-(1-Methyl-2-oxo-1,2,3,4-tetrahydro-quinolin-6-yl)-5,6,7,8-tetrahydro-isoquinolin-8-yl]-methanesulfonamide], for which the EC50 turned out to be 1930 nM at human CYP11B1 and 17 nM on human CYP11B2.

As to `CN1C(=O)CCc2cc(-c3cncc4c3CCC[C@H]4NS(=O)(=O)C3CC3)ccc21` [Example 66, Cyclopropanesulfonic acid [(R)-4-(1-methyl-2-oxo-1,2,3,4-tetrahydro-quinolin-6-yl)-5,6,7,8-tetrahydro-isoquinolin-8-yl]-amide], the concentration giving a half-maximal response (EC50) at human CYP11B1 came to 319 nM; on human CYP11B2, 35.5 nM.

Regarding `CN1C(=O)CCc2cc(-c3cncc4c3CCCC4=O)ccc21` [Example 70, 1-Methyl-6-(8-oxo-5,6,7,8-tetrahydro-isoquinolin-4-yl)-3,4-dihydro-1H-quinolin-2-one], the results for the EC50 at human CYP11B1 and at human CYP11B2 were 7170 nM and 15.7 nM, respectively.

As for `N#Cc1ccc(C2CCCc3cncn32)cc1` (centres unmarked) [FAD286], in assay [1], the plasma aldosterone entry is recorded as “reduced”; the “angiotensin II and salt-stimulated PAI-1 mRNA expression in the aorta and the heart” value is given as “not”; the “cardiac and aortic medial hypertrophy” value is “attenuated”; the “renal effects of angiotensin II and high salt (albuminuria, azotemia, renovascular hypertrophy, glomerular injury, PAI-1 and osteopontin mRNA, tubulointerstitial fibrosis)” value is “prevented these renal effects”. Moreover, in assay [2], the “blood pressure and cardiovascular function and structure” value is “improved”; the “kidney function and morphology” value is reported as “improve”.

In the case of `N#Cc1ccc([C@H]2CCc3cncn32)c(F)c1` [LCI699], in assay [3], the blood pressure result is listed as “mildly decreased”; the hypokalemia result is given as “corrected”; the “selectivity (effects on the glucocorticoid axis, cortisol synthesis)” value is “poor selectivity”. The circulating aldosterone levels entry in assay [3] (oral) is recorded as “significantly lower”.

For `CC(=O)S[C@@H]1CC2=CC(=O)CC[C@]2(C)[C@H]2CC[C@@]3(C)[C@@H](CC[C@@]34CCC(=O)O4)[C@H]12` [spironolactone], in assay [1], the plasma aldosterone entry is on record as “increased”; the “angiotensin II and salt-stimulated PAI-1 mRNA expression in the aorta and the heart” value is listed as “enhanced”; the “cardiac and aortic medial hypertrophy” value is “attenuated”; the “renal effects of angiotensin II and high salt (albuminuria, azotemia, renovascular hypertrophy, glomerular injury, PAI-1 and osteopontin mRNA, tubulointerstitial fibrosis)” value is on record as “prevented these renal effects”.
